This note sets out measurements from patent US20250333437A1, “USE OF NON-INFORMAT[…] CHAINS TO MODIFY THE […] PEPTIDES” (priority 2022, published 2025).

This data set can be described thus: Solubility of the poison ivy antigen in water and ethanol. Type of data set: physicochemical. From the text:
The present inventors discovered the phenomenon of tissue deposition by precipitation (TDBP) with an allergy vaccine that was a catechol and naturally had the requisite solubility properties to achieve TDBP. In particular, the poison ivy antigen that induced tolerance when precipitated in muscle by precipitation is a catechol which is naturally insoluble in water and for which effective doses are soluble in small volumes of the pharmaceutically acceptable water-miscible solvent ethanol. The inventors termed the phenomenon vaccine delivery by precipitation (VDBP) which is a preferred embodiment of TDBP and they interpreted its probable mechanism of action.
FIG. 1 is a graphic representation of the function of the adaptive immune system in the skin, reproduced from Teunissen on intradermal immunization. It is a cartoon of how immunomodulation takes place. […] These recognize and take up molecules or particles of an antigen which they then present to naive T lymphocytes which then mature along one of what are shown here as seven different pathways. The location is the cortex of a lymph node. Dendritic cells (DC's) from either homeostatic or inflamed tissue present antigenic epitopes in their MHC Class Il molecular grooves, to naive T lymphocytes (Tn). […]

Take urushiol [poison ivy antigen]: the solubility in ethanol entry (effective doses in small volumes of ethanol) is recorded as “soluble”. The solubility in water result (water) is “insoluble”.
